Series [1] has as its system RMS cell lines (RD cells). Briefly: Cell cycle. The format is cell-based, human. Particulars: 1 μM AZD1775, 24 or 48 hr.
In series [2] the test system is RMS orthotopic xenografts SJRHB000026_X1, SJRHB012_Y, SJRHB013757_X2, SJRHB013759_X1. It is filed as in vivo, mouse. Particulars: single-agent groups.
The subject of series [3] is RMS cell lines and primary cultures of O-PDX cells. Briefly: General drug screening. The format is cell-based, human. To be noted: for in vitro activity in RMS O-PDX drug screening: primary cultures of RMS O-PDXs and cell lines.
The nature of series [4]: Abemaciclib plasma and tumor PK in tumor-bearing mice. To be noted: female, athymic nude, mouse, po, 50 mg/kg.
The conditions of series [5]: ref Patnaik et al., 2016, cited from earlier work.
For series [6] the following is noted: abemaciclib, mice; ref Raub et al., 2015; cited from earlier work.
For series [7] the following is noted: mouse, in vivo.
For another series, the system named is RMS O-PDXs. Particulars: previous preclinical phase 2 studies; ref Stewart et al., 2017; cited from earlier work.
The nature of series [8]: Ganetespib plasma and tumor PK in tumor-bearing mice. To be noted: for half-life: female, athymic nude, mouse, iv, 150 mg/kg. The format is in vivo, mouse.
The nature of series [9]: Preclinical phase 1 tolerability study. Particulars: GSP 10 mg/kg, AZD1775 60 mg/kg twice daily, in combination regimens.
The conditions of series [10]: species not stated; cited from earlier work.
The conditions of series [11]: ref Goldman et al., 2013, cited from earlier work.
For series [12] the following is noted: ref palbociclib FDA NDA reviews, cited from earlier work.
The nature of series [13]: in vivo. Particulars: female, athymic nude.
A short description of series [14]: Palbociclib human plasma PK. The format is in vivo. Particulars: patients, 125 mg PO QD, standard calculations.
The conditions of series [15]: mice, ref Parrish et al., 2015; cited from earlier work.
Series [16] can be described thus: in vivo. To be noted: female, athymic nude, mouse, po, 0.1 mg/kg.
For series [17] the following is noted: cited from earlier work; for mean plasma CL/F: population PK.
Series [18] can be described thus: Trametinib human plasma PK. The format is in vivo. To be noted: patients, standard calculations.

Where two headings read alike, the source gives them in different places.

This is an account of results in publication PMC6158019 (Cancer cell, 2018).

For the compound `C=CCn1c(=O)c2cnc(Nc3ccc(N4CCN(C)CC4)cc3)nc2n1-c1cccc(C(C)(C)O)n1` [AZD1775], the “cell cycle and nuclear effects” value in [1] is “G2/M phase arrest, mitotic catastrophe, and nuclear fragmentation”. For the same compound, the “overall survival compared with placebo” value in [2] is reported as “not different from placebo”. Moreover, the “in vitro activity in RMS O-PDX drug screening” value in [3] is “significant in vitro activity”.
What is called half-life is the time needed for the level to fall by half in the phase considered. A higher half-life goes with slow loss. As to `CCN1CCN(Cc2ccc(Nc3ncc(F)c(-c4cc(F)c5nc(C)n(C(C)C)c5c4)n3)nc2)CC1` [abemaciclib], the half-life in [4] (plasma) is 5.2 h. The half-life in [4] (tumor) was 5.98 h. In series [5] (200 mg PO BID), the “geometric mean total plasma AUCtau at steady state” value is 3000 ng·h/mL and the “geometric mean trough concentration” value is 197 ng/mL. In series [5] (Phase 1, single agent, continuous), the “maximum tolerated dose (MTD)” value is on record as 200 mg PO BID. Besides, in [6], the “mean in vitro fraction unbound in the plasma (Fu,p)” value was 0.054. The “rounded and recommended MED” value in series [7] (female, athymic nude) is 7.5-15 mg/kg PO BID. Further, the “plasma AUC lower than that reported by Tate” value in [7] (female, athymic nude, po, 50 mg/kg) was ~ 3.8 fold. In addition, the “murine equivalent dose (MED) providing a similar total plasma AUC” value in series [7] is 14.4 mg/kg.
In the case of `CC(C)C[C@H](NC(=O)[C@H](Cc1ccccc1)NC(=O)c1cnccn1)B(O)O` [bortezomib], the efficacy in vivo result in the series on RMS O-PDXs is reported as “failed to show efficacy in vivo”.
With `CC(C)c1cc(-c2n[nH]c(=O)n2-c2ccc3c(ccn3C)c2)c(O)cc1O` [ganetespib], in [8] (50 to 150 mg/kg IV, 10 min after injection, data not shown), the “increase in plasma Cmax for a 3-fold increase in dose” value was roughly 17 fold. The half-life in [8] (plasma) is 2.03 h; in series [8] (tumor) it was 8.42 h. Moreover, in series [8] (vs human 200 mg/m^2), the “murine equivalent dose (MED) providing a similar total plasma AUCinf” value is recorded as 12.8 mg/kg. Moreover, the tolerability result in [9] is “well tolerated in all groups”. For the same compound, the “overall survival compared with placebo” value in [2] is given as “not different from placebo”. Moreover, in series [10], the plasma protein binding entry is reported as “high”. The “recommended Phase 2 dose (RP2D)” value in [11] (IV once weekly for 3 weeks of a 4-week cycle) is recorded as 200 mg/m^2. Besides, the “estimated human total plasma AUCinf” value in [11] (at 200 mg/m^2) is recorded as “approximately 7000 hr-ng/mL”. The major adverse events result in series [11] (patients) was “diarrhea and fatigue”. Besides, in series [3] (RMS cell lines and primary cultures of O-PDX cells), the “sensitivity of RMS cells relative to other pediatric solid tumors” value is on record as “more sensitive”. Further, the “in vitro activity in RMS O-PDX drug screening” value in [3] is “significant in vitro activity”.
Usually CL/F stands for clearance divided by bioavailability, as obtained after extravascular dosing. Consider `CC(=O)c1c(C)c2cnc(Nc3ccc(N4CCNCC4)cn3)nc2n(C2CCCC2)c1=O` [palbociclib], for which the “estimated total plasma AUCtau at steady state” value in series [12] (patients, 125 mg PO QD) was 2080 ng·h/mL. For the same compound, in series [12] (typical patient, population PK), the “mean plasma CL/F” value was 60.2 L/h. In addition, the “back-estimated mouse plasma Cavg” value in the series “in vivo [13]” (10 mg/kg) is reported as 76.9 ng/mL. In the series “in vivo [13]” (mouse), the “murine equivalent dose (MED)” value came out at 10 mg/kg. In the series “in vivo [13]” (mouse, po, 16 mg/kg), this compound showed an apparent clearance CL/F of 91.2 mL/min/kg, a Kp of roughly 6 and a half-life of 2.61 h. The “estimated total plasma Cavg,ss” value in series [14] is reported as “about 85 ng/mL”. In addition, the “apparent terminal half-life (T1/2), literature” value in series [15] is “approximately 3.4 hr”.
Turning to `Cc1[nH]c2ccccc2c1CCNCc1ccc(/C=C/C(=O)NO)cc1` [panobinostat], in the series on RMS O-PDXs, the efficacy in vivo result is reported as “failed to show efficacy in vivo”.
Regarding `CC(=O)Nc1cccc(-n2c(=O)n(C3CC3)c(=O)c3c(Nc4ccc(I)cc4F)n(C)c(=O)c(C)c32)c1` [trametinib], the Kp in the series “in vivo [16]” worked out at 5.49. The “mean AUC” value in series [17] (across genders, 2 mg PO QD, ref Ouellet et al., 2016) was 365 ng·h/mL. Besides, in [17] (putative single agent), the “maximum tolerated dose (MTD)” value is 2 mg PO QD. Moreover, the “mean plasma CL/F” value was 4.91 L/h in series [17] (typical female patient, ref Ouellet et al., 2016) and 6.19 L/h in series [17] (typical male patient, ref Ouellet et al., 2016). Also, in series [18], the “estimated total plasma Cavg,ss” value was “about 15.1 ng/mL”.
